Measurements: patent publication US8299035B2, “10a-azalide compound having 4-membered ring structure” (Taisho Pharmaceutucal Co., Ltd., priority 2008, dated 2012)
In brackets after ≈: the same amount, converted by molar mass.

Experiments:
Assay in all cases: In vitro antibacterial activity, microbroth dilution method (CLSI method)
Format in all cases: cell-based
S. pneumoniae ATCC 49619 = settings: bacteria symbol C = S. pneumoniae ATCC 49619
Method: (§1) In vitro antibacterial activities of the compounds of the present invention against various test bacteria were measured according to the microbroth dilution method (CLSI method). The exemplary compounds shown in Table 9 and the comparative agent 1, clarithromycin, were used as test substances. The results are shown as MIC values (minimum inhibitory concentration, μg/ml) in Table 9. [table]

[1] = system: S. pneumoniae ATCC 700904; settings: bacteria symbol D = S. pneumoniae ATCC 700904
Method: as §1

H. influenzae Rd = settings: bacteria symbol B = H. influenzae Rd
Method: as §1

H. influenzae ATCC 43095 = settings: bacteria symbol A = H. influenzae ATCC 43095
Method: as §1

| Compound | MIC values (minimum inhibitory concentration) (S. pneumoniae ATCC 49619) [µg/mL] | MIC values (minimum inhibitory concentration) [1] [µg/mL] | MIC values (minimum inhibitory concentration) (H. influenzae Rd) [µg/mL] | MIC values (minimum inhibitory concentration) (H. influenzae ATCC 43095) [µg/mL] | MIC (S. pneumoniae ATCC 49619; Streptococcus pneumoniae, ATCC49619, read-out: MIC values (minimum inhibitory concentration)) [µg/mL] | MIC ([1]; Streptococcus pneumoniae, ATCC700904, read-out: MIC values (minimum inhibitory concentration)) [µg/mL] | MIC (H. influenzae Rd; Haemophilus influenzae, read-out: MIC values (minimum inhibitory concentration)) [µg/mL] | MIC (H. influenzae ATCC 43095; Haemophilus influenzae, ATCC43095, read-out: MIC values (minimum inhibitory concentration)) [µg/mL] |
| --- | --- | --- | --- | --- | --- | --- | --- | --- |
| CCN(CCNC[C@@]1(O)[C@H](C)O[C@@H](O[C@H]2[C@H](C)[C@@H](O[C@@H]3O[C@H](C)C[C@H](N(C)C)[C@H]3O)[C@@](C)(OC)C[C@@H](C)[C@H](O)[C@H](C)N3CC(C3)OC(=O)[C@@H]2C)C[C@@]1(C)OC)[C@@H](C)c1ccccc1OC [Example 3] | 0.03 (≈ 0.0325 µM) | 0.12 (≈ 0.13 µM) | 4 (≈ 4.33 µM) | 4 (≈ 4.33 µM) |  |  |  |  |
| COc1ccccc1C(C)(C)N(C)CCN(C)CC1(O)C(C)OC(OC2C(C)C(=O)OC3CN(C3)C(C)C(O)C(C)CC(C)(OC)C(OC3OC(C)CC(N(C)C)C3O)C2C)CC1(C)OC (stereo not shown) [Example 71] | 0.03 (≈ 0.032 µM) | 0.12 (≈ 0.128 µM) | 2 (≈ 2.13 µM) | 2 (≈ 2.13 µM) |  |  |  |  |
| COc1ccccc1C(C)(C)N(C)Cc1cncn1CC1(O)C(C)OC(OC2C(C)C(=O)OC3CN(C3)C(C)C(O)C(C)CC(C)(OC)C(OC3OC(C)CC(N(C)C)C3O)C2C)CC1(C)OC (stereo not shown) [Example 204] | 0.03 (≈ 0.0312 µM) | 1 (≈ 1.04 µM) | 16 (≈ 16.7 µM) | 16 (≈ 16.7 µM) |  |  |  |  |
| CCN(CCNC(=O)O[C@H]1[C@H](C)O[C@@H](O[C@H]2[C@H](C)[C@@H](O[C@@H]3O[C@H](C)C[C@H](N(C)C)[C@H]3O)[C@@](C)(OC)C[C@@H](C)[C@H](O)[C@H](C)N3CC(C3)OC(=O)[C@@H]2C)C[C@@]1(C)OC)[C@@H](C)c1ccccc1OC [Example 2] | 0.06 (≈ 0.064 µM) | 0.25 (≈ 0.267 µM) | 8 (≈ 8.54 µM) | 4 (≈ 4.27 µM) |  |  |  |  |
| CO[C@]1(C)C[C@H](O[C@H]2[C@H](C)[C@@H](O[C@@H]3O[C@H](C)C[C@H](N(C)C)[C@H]3O)[C@@](C)(OC)C[C@@H](C)[C@H](O)[C@H](C)N3CC(C3)OC(=O)[C@@H]2C)O[C@@H](C)[C@@H]1O (mixture of isomers) [Example 1] | 0.12 | >128 | 1 | 0.5 |  |  |  |  |
| COc1ncccc1C(C)(C)N(C)CCN(C)C[C@@]1(O)[C@H](C)O[C@@H](O[C@H]2[C@H](C)[C@@H](O[C@@H]3O[C@H](C)C[C@H](N(C)C)[C@H]3O)[C@@](C)(O)C[C@@H](C)[C@H](O)[C@H](C)N3CC(C3)OC(=O)[C@@H]2C)C[C@@]1(C)OC [Example 221] | 0.06 (≈ 0.0649 µM) | 1 (≈ 1.08 µM) | 8 (≈ 8.66 µM) | 8 (≈ 8.66 µM) |  |  |  |  |
| CC[C@H]1OC(=O)[C@H](C)[C@@H](O[C@H]2C[C@@](C)(OC)[C@@H](O)[C@H](C)O2)[C@H](C)[C@@H](O[C@@H]2O[C@H](C)C[C@H](N(C)C)[C@H]2O)[C@](C)(OC)C[C@@H](C)C(=O)[C@H](C)[C@@H](O)[C@]1(C)O [Comparative agent 1, clarithromycin, reference compound] |  |  |  |  | 0.03 (≈ 0.0401 µM) | > 128 | 8 (≈ 10.7 µM) | 4 (≈ 5.35 µM) |
| CCN(CC(C)NCC1(O)C(C)OC(OC2C(C)C(=O)OC3CN(C3)C(C)C(O)C(C)CC(C)(OC)C(OC3OC(C)CC(N(C)C)C3O)C2C)CC1(C)OC)C(C)(C)c1ccccc1OC (stereo not shown) [Example 84] | 0.016 (≈ 0.0168 µM) | 0.06 (≈ 0.0631 µM) | 4 (≈ 4.2 µM) | 4 (≈ 4.2 µM) |  |  |  |  |
| COc1ccccc1C(C)(C)N(C)CC1CN(CC2(O)C(C)OC(OC3C(C)C(=O)OC4CN(C4)C(C)C(O)C(C)CC(C)(OC)C(OC4OC(C)CC(N(C)C)C4O)C3C)CC2(C)OC)C1 (stereo not shown) [Example 162] | 0.03 (≈ 0.0316 µM) | 0.12 (≈ 0.126 µM) | 2 (≈ 2.11 µM) | 2 (≈ 2.11 µM) |  |  |  |  |
| COc1cccc2c1CCCC2N(C)CCN(C)CC1(O)C(C)OC(OC2C(C)C(=O)OC3CN(C3)C(C)C(O)C(C)CC(C)(OC)C(OC3OC(C)CC(N(C)C)C3O)C2C)CC1(C)OC (stereo not shown) [Example 133] | 0.12 (≈ 0.126 µM) | 0.5 (≈ 0.527 µM) | 16 (≈ 16.9 µM) | 8 (≈ 8.43 µM) |  |  |  |  |
| COC1(C)CC(C)C(O)C(C)N2CC(C2)OC(=O)C(C)C(OC2CC(C)(OC)C(O)(CNCCNC(C)(C)c3cccc4c3ccn4C)C(C)O2)C(C)C1OC1OC(C)CC(N(C)C)C1O (stereo not shown) [Example 70] | 0.12 (≈ 0.129 µM) | 0.25 (≈ 0.268 µM) | 4 (≈ 4.29 µM) | 4 (≈ 4.29 µM) |  |  |  |  |
| COc1cccc2c1CN(CCN(C)CC1(O)C(C)OC(OC3C(C)C(=O)OC4CN(C4)C(C)C(O)C(C)CC(C)(OC)C(OC4OC(C)CC(N(C)C)C4O)C3C)CC1(C)OC)CC2 (stereo not shown) [Example 132] | 0.06 (≈ 0.0651 µM) | 1 (≈ 1.09 µM) | 8 (≈ 8.68 µM) | 4 (≈ 4.34 µM) |  |  |  |  |
| CCN(CCNC[C@@]1(O)[C@H](C)O[C@@H](O[C@H]2[C@H](C)[C@@H](O[C@@H]3O[C@H](C)C[C@H](N(C)C)[C@H]3O)[C@@](C)(OC)C[C@@H](C)C(=O)[C@H](C)N3CC(C3)OC(=O)[C@@H]2C)C[C@@]1(C)OC)[C@@H](C)c1ccccc1OC [Example 5] | 0.03 (≈ 0.0326 µM) | 0.5 (≈ 0.543 µM) | 8 (≈ 8.68 µM) | 4 (≈ 4.34 µM) |  |  |  |  |
| CCN(CCNC(=O)O[C@H]1[C@H](C)O[C@@H](O[C@H]2[C@H](C)[C@@H](O[C@@H]3O[C@H](C)C[C@H](N(C)C)[C@H]3O)[C@@](C)(O)C[C@@H](C)[C@H](O)[C@H](C)N3CC(C3)OC(=O)[C@@H]2C)C[C@@]1(C)OC)[C@@H](C)c1ccccc1OC [Example 12] | 0.03 (≈ 0.0325 µM) | 0.25 (≈ 0.271 µM) | 8 (≈ 8.67 µM) | 8 (≈ 8.67 µM) |  |  |  |  |
| CCN(CC(CO)NCC1(O)C(C)OC(OC2C(C)C(=O)OC3CN(C3)C(C)C(O)C(C)CC(C)(OC)C(OC3OC(C)CC(N(C)C)C3O)C2C)CC1(C)OC)C(C)c1ccccc1OC (stereo not shown) [Example 107] | 0.03 (≈ 0.0315 µM) | 0.06 (≈ 0.0629 µM) | 4 (≈ 4.2 µM) | 4 (≈ 4.2 µM) |  |  |  |  |
| COC1(C)CC(C)C(O)C(C)N2CC(C2)OC(=O)C(C)C(OC2CC(C)(OC)C(O)(CN(C)CCN(C)C(C)c3ccccc3-c3ccccn3)C(C)O2)C(C)C1OC1OC(C)CC(N(C)C)C1O (stereo not shown) [Example 195] | 0.03 (≈ 0.0309 µM) | 0.06 (≈ 0.0618 µM) | 8 (≈ 8.24 µM) | 4 (≈ 4.12 µM) |  |  |  |  |
